According to US6903119B1, “Amino acid derivatives and drugs containing the same as the active ingredient” (Ono Pharmaceutical Co., Ltd., priority 1998, dated 2005):
Structures can show the parent of a compound that is named as a salt.

Biological target: T1, N-type calcium channel (Homo sapiens, UniProt Q00975)
T1 construct: Cell line was differentiated according to the method described in FEBS Lett. (1988) 235 178-182; endogenous in cells; host or cells: unnamed cell line, differentiated per FEBS Lett. (1988) 235 178-182
T1 sequence (Q00975 whole entry): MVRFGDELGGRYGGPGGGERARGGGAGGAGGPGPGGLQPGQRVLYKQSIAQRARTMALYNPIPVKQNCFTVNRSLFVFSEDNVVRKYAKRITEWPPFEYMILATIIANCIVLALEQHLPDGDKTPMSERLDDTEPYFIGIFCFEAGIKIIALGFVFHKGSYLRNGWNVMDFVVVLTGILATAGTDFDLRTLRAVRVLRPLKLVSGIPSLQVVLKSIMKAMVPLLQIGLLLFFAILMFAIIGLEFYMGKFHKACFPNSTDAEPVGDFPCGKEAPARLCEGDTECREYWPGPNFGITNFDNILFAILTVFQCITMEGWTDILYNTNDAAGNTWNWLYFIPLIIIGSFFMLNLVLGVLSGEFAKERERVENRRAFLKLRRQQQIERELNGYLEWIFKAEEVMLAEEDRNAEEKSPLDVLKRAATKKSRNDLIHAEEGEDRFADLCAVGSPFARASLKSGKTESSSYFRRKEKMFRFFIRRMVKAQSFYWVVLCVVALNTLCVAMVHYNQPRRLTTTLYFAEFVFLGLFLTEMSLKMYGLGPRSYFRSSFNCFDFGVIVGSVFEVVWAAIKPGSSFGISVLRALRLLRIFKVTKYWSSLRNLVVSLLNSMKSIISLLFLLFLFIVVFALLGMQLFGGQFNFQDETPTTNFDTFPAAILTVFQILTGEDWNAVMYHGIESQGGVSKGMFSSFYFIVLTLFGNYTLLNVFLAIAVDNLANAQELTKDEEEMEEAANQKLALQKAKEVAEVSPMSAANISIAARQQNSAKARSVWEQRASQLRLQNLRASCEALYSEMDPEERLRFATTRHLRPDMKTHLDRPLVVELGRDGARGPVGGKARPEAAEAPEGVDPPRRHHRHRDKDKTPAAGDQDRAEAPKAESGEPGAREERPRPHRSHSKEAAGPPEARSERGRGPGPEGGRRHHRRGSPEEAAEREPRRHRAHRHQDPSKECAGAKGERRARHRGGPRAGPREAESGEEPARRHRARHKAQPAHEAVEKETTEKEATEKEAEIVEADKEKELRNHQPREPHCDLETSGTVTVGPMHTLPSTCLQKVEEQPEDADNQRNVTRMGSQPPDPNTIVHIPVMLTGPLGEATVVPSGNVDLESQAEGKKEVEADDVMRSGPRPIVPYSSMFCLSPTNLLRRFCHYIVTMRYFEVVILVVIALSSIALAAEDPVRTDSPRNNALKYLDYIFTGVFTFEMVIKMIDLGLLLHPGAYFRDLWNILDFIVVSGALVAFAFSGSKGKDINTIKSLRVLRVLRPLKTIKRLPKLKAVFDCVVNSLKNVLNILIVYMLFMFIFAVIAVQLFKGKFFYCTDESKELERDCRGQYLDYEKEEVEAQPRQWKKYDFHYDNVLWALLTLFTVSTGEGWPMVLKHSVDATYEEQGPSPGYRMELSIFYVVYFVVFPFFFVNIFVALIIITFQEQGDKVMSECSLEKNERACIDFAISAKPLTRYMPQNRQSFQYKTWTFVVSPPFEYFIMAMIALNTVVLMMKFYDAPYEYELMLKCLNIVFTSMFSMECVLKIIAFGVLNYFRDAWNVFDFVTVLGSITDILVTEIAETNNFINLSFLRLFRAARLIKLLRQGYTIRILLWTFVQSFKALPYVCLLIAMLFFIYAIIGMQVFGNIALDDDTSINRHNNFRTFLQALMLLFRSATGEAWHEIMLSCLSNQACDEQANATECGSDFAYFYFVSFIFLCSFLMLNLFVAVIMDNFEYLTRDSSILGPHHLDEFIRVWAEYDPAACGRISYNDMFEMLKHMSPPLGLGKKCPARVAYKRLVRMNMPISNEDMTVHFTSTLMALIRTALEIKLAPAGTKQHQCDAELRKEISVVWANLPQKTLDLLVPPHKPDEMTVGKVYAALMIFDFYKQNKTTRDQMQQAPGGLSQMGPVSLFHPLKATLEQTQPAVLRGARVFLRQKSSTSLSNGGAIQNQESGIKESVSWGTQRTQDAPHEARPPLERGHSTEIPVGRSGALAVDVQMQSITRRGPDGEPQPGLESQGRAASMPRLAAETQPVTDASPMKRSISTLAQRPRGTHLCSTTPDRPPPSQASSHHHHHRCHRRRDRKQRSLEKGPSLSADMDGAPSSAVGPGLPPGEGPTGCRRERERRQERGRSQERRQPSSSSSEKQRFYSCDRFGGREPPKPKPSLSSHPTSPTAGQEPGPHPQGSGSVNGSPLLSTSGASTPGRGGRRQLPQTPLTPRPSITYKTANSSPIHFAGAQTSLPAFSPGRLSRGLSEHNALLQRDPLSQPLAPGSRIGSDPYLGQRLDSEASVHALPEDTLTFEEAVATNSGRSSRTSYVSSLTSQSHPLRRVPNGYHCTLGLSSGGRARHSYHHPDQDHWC
Assay: Determination of inhibitory activity on N-type calcium channel (Fura-2 calcium influx, KCl depolarization, with nifedipine)
Assay type: cell-based
Details: compound at final concentration of 3 μM, depolarized with 80 mM KCl, Fura-2 fluorescence, read-out: Inhibitory effect on calcium flow (%)
Description: Determination of Inhibitory Activity on N-type Calcium Channel:
Cell line was differentiated according to the method described in FEBS Lett. (1988) 235 178-182. The cell was loaded with fluoriescent reagent, Fura-2 AM (at the final concentration of 10 μM), at 37° C. for 30 minutes and suspended in Krebs-buffer containing HEPES (25 mM) to obtain the cell suspension. The obtained cell suspension was incubated in the presence or absence of the compounds of the present invention with nifedipine for 5 minutes. The cell was depolarized by adding potassium chloride solution (at the final concentration of 80 mM) thereto and then a fluorescence intensity at the emission wavelength of 500 nm excited by the UV of 340 nm and 380 nm alternately was measured using the intracellular calcium analyzer (Nippon Bunko Co., CAF-110). The inhibitory activity of the compound of the present invention (at the final concentration of 3 μM) on calcium influx into the cell was calculated from the difference in changing the fluorescence intensity at peak (ΔR) according to the following equation. [formula]

Structure (SMILES)	inhibition at 3 µM [%]
COCCOC(=O)N1CSC[C@H]1C(=O)N[C@@H](CSCC1CCCCC1)C(=O)NC1CCN(Cc2ccccc2)CC1 [compound 11]	81
CC(C)(C)CC(=O)N1CSC[C@H]1C(=O)N[C@@H](CSCC1CCCCC1)C(=O)NC1CCN(Cc2ccccc2)CC1 [11 (2), (2R)-N-(1-benzylpiperidin-4-yl)-3-cyclohexylmethylthio-2-((4R)-3-(3,3-dimethylbutyryl)thiazolidin-4-ylcarbonylamino)propanamide.hydrochloride]	89
